Assay [1] is described as follows: Remineralization of artificial white spot lesions, SEM and EDXS analyses of new mineral layer. On the set-up: species or system human. Conditions: for thickness of newly formed mineral layer: SEM of cross-sectioned samples, 1 hour treatment. An excerpt:
Extracted teeth with no visible white spot lesions, caries, or any other kind of restorations were collected from dental clinics around the King County area (WA, USA) and disinfected in 10% aqueous bleach solutions. Prior to the experiments, the teeth were cleaned to remove visible blood, gross debris and soft connective tissue using a dental scaler under a light microscope.
Enamel was demineralized to create artificial lesions to mimic white spot lesions and/or incipient caries. The teeth were covered by lacquer leaving a 4-mm wide square window in the enamel close to cemento-enamel junction. The exposed areas of 4×4 mm enamel were treated with a cocktail of acetic acid/CaCl2/KH2PO4 for 2 weeks to establish up to 200 μm deep artificially created non-cavitated white spot lesions (WSL). Samples were then divided into control and test groups. Test groups were treated either with peptide, fluoride, or combination of both (Table 5).
Prior to remineralization, samples requiring peptide treatments (Groups 5 & 6) were incubated in 50 μL of 0.8 mM peptide dissolved in 50 mM Tris Buffer Solution (TBS) (pH:7.4) for 10 minutes at 37° C. Next, treatment samples were exposed to 50 mM TBS containing Ca^2+/PO4^3− (Groups 2, 5) or Ca^2+/PO4^3−/F^− (Groups 3, 4, 6) at concentrations as listed in Table 5 for 1 hour at 37° C., then rinsed with de-ionized (DI) water, dried by forced air and stored at room temperature until characterization.
After re-mineralization experiments were completed, secondary electron imaging (SEI) in the scanning electron microscope (SEM) was used to characterize the surface morphology and to show the thickness of newly formed mineral layer in cross-sections where applicable. Specimen preparation for SEM involved cutting a notch on the back side using a low speed saw (IsoMet™, Buehler, Lake Bluff, Ill., USA) before they were subjected to WSL formation and remineralization as described above. After remineralization step was completed, specimens were rinsed with DI water, air dried gently (<5 PSI), then carefully fractured into 2 pieces along the notch. One of the fractured pieces was mounted on a SEM stub with the mineralizing surface facing up for imaging the surface morphology and second piece was mounted with the cross-section facing up to show the thickness of mineral layer. Mounted specimens were then stored in vacuum for at least 2 hours to remove residual moisture which were then sputter coated with 5-nm thick platinum (SPI-Sputter Module Coater, SPI Supplies, West Chester, Pa., USA). SEM characterization was performed using an FEI Sirion microscope (Sirion, FEI, Hillboro, Oreg., USA) operating at 10 kV acceleration voltage. The chemical composition was measured by an onboard energy dispersive X-ray spectroscopy (EDXS) system (X-Max^N Si drift detector with AZtecEnergy software package, Oxford Instruments, Abingdon, Oxfordshire, UK). The measurements for each group were pooled from 5 specimens per group. The average values and standard deviations were calculated and expressed as the mean±standard error.

The nature of assay [2]: Nanoindentation of mineralized layers in cross-section. More on the design: species or system human. An excerpt: Similar to SEM specimen preparation, tooth samples were notched from the back of tooth before remineralization, then fractured along the notch. The specimens were then mounted in a room temperature-cure epoxy, and the cross-section of the fracture was polished to 0.1 μm finish using diamond lapping films (Allied High Tech Products Inc., Rancho Dominguez, Calif., USA). Nanoindentation measurements were made using a Triboindentor nanoindentation system (Hysitron Inc., Minneapolis, Minn., USA) in air. Hardness (H) and elastic modulus (Er) were determined by the software accompanying the nanoindentation unit.^40-42 In order to obtain the values that were not indentation volume dependent, maximum indentation depth for all measurements kept at 120±10 nm. All reported H and Er values were averaged over 20 measurements.
Nanoindentation, on the other hand, can handle a much smaller applied load, e.g., in the range of 700 to 800 μN; this range of loads to maintain a nominal total indentation depth of approximately 100 nm (<1 μm in indentation width) reasonable depth for both the WSL and mineralized layer regions. The method provides a dynamic measurement with the indentation system tracking continuously load vs. depth during the indentation process providing a Force-to-depth (F-d) profile of the mechanical response of the sample, including biological hard tissues such as enamel, dentin, and bone. The hardness and elastic modulus were extracted from the linear extrapolation of the unloading curve (see FIG. 14b). Hardness obtained by this method contains partial elastic deformation as well as plastic deformation. With small indentation depth and footprint, indentation characterization of the mineral layer only was possible in cross-section for the group 6 samples where mineral layers were more than 5 μm thick. All other treatment groups, reliable nanoindentation characterization of the layers […] because of the thin, and in some cases, discontinuous natural of the layers. It should also be noted that the nanomechanical properties of the artificially created lesion were also determined, with values similar to those of the mineralized layers. Regardless, the complete nanoindentation values are tabulated in Table 10 where each value represents more than 20 measurements per sample.

The mark [3] stands for this setting: EDXS, 1 hour treatment at 37° C.
Where [4] appears, read: mineralized layer, n ≥ 20, listed as Group 6 (shADP5).
Setting [5] is: mineralized layer, n ≥ 20, listed as group 6.
[6] abbreviates: underlying enamel of Group 6 samples.

The values that follow come from patent US10952940B2, “Reagents and methods for mineralization of tooth enamel” (UNIVERSITY OF WASHINGTON, priority 2016, dated 2021).

Some results are limits rather than exact numbers.

With “SYENSHSQAINVDRT [shADP5, 15-amino acid long amelogenin-derived peptide, shortened human ADP5]”, the “delivery of fluoride into the mineral layer” value in assay [1] (EDXS) is “allows the delivery and incorporation of fluoride ions into the remineralized layer even at low F concentrations”. Further, in assay [1] (setting [3]), the “Possible Mineral Formed” value is recorded as “Only HAP”. Besides, the “Remineralized Layer Ca/O” value in assay [1] (setting [3]) is given as 0.56 ± 0.13. Besides, the “Remineralized Layer Ca/P” value in assay [1] (EDXS, 1 hour treatment at 37° C., listed as 6. Peptide only) was 1.56 ± 0.12; in assay [1] (EDXS, 1 hour treatment at 37° C., listed as Group 6) it was 1.54±0.12; in assay [1] (EDXS, 1 hour treatment at 37° C., listed as Group-6) it was 1.56. Also, the “thickness of newly formed mineral layer” value in assay [1] (listed as Group 6) is listed as 10 μm; in assay [1] (listed as Group-6), above 10 μm; in assay [1] (listed as Peptide alone) it was 10 μm. In addition, the “Elastic Modulus (nanoindentation)” value in assay [2] (setting [4]) stood at 58.6 ± 4.7 GPa; in assay [2] (setting [5]) it was 58.6±4.7 GPa; in assay [2] (setting [6]), 55.0 ± 4.6 GPa. The “Hardness (nanoindentation)” value turned out to be 2.23 ± 0.23 GPa in assay [2] (setting [4]), 2.23±0.23 GPa in assay [2] (setting [5]) and 2.12 ± 0.21 GPa in assay [2] (setting [6]).
